According to patent US20030065039A1, “Biologically active 1,3-bis-aromatic-prop-2-en-1-ones, 1,3-bis-aromatic-propan-1-ones, and 1,3-bis-aromatic-prop-2-yn-1-ones” (Statens Serum Institute, priority 1997, published 2003):

Experiments:
Vero cell cultures = test: Cytotoxicity in Vero cell cultures; format: cell-based; conditions: Vero cells; values given as fractions, footnote a not given
Description: (§1) In the following is reported the results from a Vero cell culture infected with different viruses. The cell culture used as well as the methods applied are well known to a person skilled in the art.

Coxsackie virus B4 = test: Antiviral activity in Vero cell cultures; format: cell-based; conditions: Vero cells; values given as fractions
Experimental: (§2) IC50 values are determined by the virus plaque formation and/or the virus cytopathic assay using standard methods well-known in the art.
as §1

Parainfluenza-3 Virus = test: Antiviral activity in Vero cell cultures; format: cell-based; conditions: Vero cells; values given as fractions
Experimental: as §2, §1

Reovirus-1 = test: Antiviral activity in Vero cell cultures; format: cell-based; conditions: Vero cells; values given as fractions
Experimental: as §2, §1

Simliki forest virus = test: Antiviral activity in Vero cell cultures; format: cell-based; conditions: Vero cells; values given as fractions
Experimental: as §2, §1

Sindbis virus = test: Antiviral activity in Vero cell cultures; format: cell-based; conditions: Vero cells; values given as fractions
Experimental: as §2, §1

[1] = system: cytomegalovirus AD-169 strain; test: Activity against cytomegalovirus in HEL cells (plaque formation); format: cell-based; conditions: virus plaque formation reduced by 50%, 100 PFU, values given as fractions
Experimental: as §2

[2] = system: cytomegalovirus Davis strain; test: as above; format: cell-based; conditions: virus plaque formation reduced by 50%, 100 PFU, values given as fractions
Experimental: as §2

[3] = system: human embryonic lung (HEL) cells; test: Cytotoxicity in human embryonic lung (HEL) cells; format: cell-based; conditions: HEL cell growth reduced by 50%; values given as fractions
[4] = target: T1, Helicobacter pylori fumarate reductase (Helicobacter pylori, UniProt O06913); format: biochemical; conditions: at concentration of 0.2 mM
T1 construct: Membrane associated proteins were solubilized from the pellet in 150 mM KCl, pH 7.0; endogenous in cells; host or cells: Helicobacter pylori 007 strain; KCl-solubilised fraction (or sonicate supernatant)
T1 sequence (O06913 1-714): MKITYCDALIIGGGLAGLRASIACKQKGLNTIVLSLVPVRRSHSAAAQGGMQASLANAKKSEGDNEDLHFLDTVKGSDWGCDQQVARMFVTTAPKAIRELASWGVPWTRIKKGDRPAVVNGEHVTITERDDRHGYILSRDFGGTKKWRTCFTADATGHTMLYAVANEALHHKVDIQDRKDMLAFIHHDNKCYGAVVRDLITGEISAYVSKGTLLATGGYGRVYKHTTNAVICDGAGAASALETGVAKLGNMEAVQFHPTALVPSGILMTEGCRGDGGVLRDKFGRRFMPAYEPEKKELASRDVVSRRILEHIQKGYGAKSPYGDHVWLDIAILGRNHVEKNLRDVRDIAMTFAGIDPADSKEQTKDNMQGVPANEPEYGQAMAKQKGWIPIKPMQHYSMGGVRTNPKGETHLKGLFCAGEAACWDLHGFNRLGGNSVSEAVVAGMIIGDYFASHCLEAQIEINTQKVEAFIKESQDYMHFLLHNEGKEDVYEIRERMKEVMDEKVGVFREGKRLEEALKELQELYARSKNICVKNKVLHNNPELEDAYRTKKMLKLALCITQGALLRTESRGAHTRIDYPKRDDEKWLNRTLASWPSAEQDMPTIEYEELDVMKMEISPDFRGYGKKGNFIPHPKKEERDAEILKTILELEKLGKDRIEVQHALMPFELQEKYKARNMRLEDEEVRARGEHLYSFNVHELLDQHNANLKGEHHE
T1 sequence (O06914 1-245 partner): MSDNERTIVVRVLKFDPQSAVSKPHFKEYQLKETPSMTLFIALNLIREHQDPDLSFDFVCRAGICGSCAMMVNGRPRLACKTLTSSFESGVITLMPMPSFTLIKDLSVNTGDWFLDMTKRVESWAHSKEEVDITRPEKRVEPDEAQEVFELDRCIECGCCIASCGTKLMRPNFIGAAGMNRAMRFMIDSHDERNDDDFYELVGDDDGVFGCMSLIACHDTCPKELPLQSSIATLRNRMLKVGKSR
T1 sequence (O06912 1-255 partner): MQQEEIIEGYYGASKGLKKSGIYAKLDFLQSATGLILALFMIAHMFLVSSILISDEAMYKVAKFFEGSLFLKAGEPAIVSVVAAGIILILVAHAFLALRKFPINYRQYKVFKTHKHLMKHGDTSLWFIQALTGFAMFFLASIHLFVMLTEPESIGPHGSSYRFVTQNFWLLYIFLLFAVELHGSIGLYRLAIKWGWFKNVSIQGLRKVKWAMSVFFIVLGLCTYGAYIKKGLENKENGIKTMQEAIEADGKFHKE
Experimental: 1) Extraction of soluble FRD: Bacteria were harvested by centrifugation at 18,000 g for 10 min at 4° C., and were washed 2 times in an isotonic phosphate saline buffer (50 mM sodium phosphate, pH 7.2, 90 mM NaCl, 5 mM Kcl). Bacteria were lysed in 5 mM Tris-HCl, pH 7.4, for 15 minutes, and centrifuged 18,000 g for 10 minutes. Membrane associated proteins were solubilized from the pellet in 150 mM KCl, pH 7.0, in ice bath for 60 min, and then the supernatant was collected after centrifugation (18,000 g for 10 minutes) for the measurement of FRD activity.
2) Extraction of FRD by sonication: Bacteria were harvested by centrifugation at 18,000 g for 10 min at 4° C., were sonicated, and then the supernatant was collected after centrifugation (18,000 g for 10 minutes) for the measurement of FRD activity.
NADH-FRD activity was determined as the rate of NADH-oxidation upon addition of 1 mM fumarate in the KCl-solubilized fraction or sonicated fraction. The reaction was monitored spectrophotometrically at 340 nm (∈=6.2 mM^−1 cm^−1) using 100 μM NADH and usually 3 mg protein in both reference and sample cuvettes. The measurement was carried out in a Shimadzu UV-190 double-beam spectrophotometer. Protein concentrations were determined using a Bio-Rad protein assay (Bio-Rad Laboratories, 200 Alfred Nobel Dr. Hercules, Calif. 94547, USA).
KCl solubilised fraction of bacteria was incubated with different concentrations of various oxygenated chalcones at 28° C. and the remaining FRD activity was measured. The IC50 values were determined as the concentration at which 50% of the activity was inhibited.

[5] = Preliminary 14 days oral toxicity study in rats; format: in vivo; conditions: highest dose level 1000 mg/kg/day
Experimental: A preliminary 14 days oral toxicity study in rats was carried out with 6 compounds. Observations included clinical signs, body weights, food intake, haematology, clinical chemistry and macroscopic pathology.

Leishmania promastigotes = Leishmania promastigotes Assay; format: cell-based; conditions: Leishmania; promastigotes, 3H-thymidine uptake; read-out: Leishmania IC50 ± SD
Outline: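 L. major (WHO Iran vaccine strain) and L. donovani MHOM/KE/85/NLB 274 promastigotes (3×10^6/ml, day 3 and 6 cultures) exposed to compound 2 h at 26 °C, then 3H-thymidine 18 h; incorporation counted by scintillation. Microscopic counts and flagellar motility also assessed.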

human lymphocytes = test: Lymphocyte Proliferation Assay; format: cell-based; conditions: Lymphocyte; PHA provoked proliferation of human lymphocytes; read-out: Lymphocytes IC50 ± SD
Outline: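 Ficoll-isolated human blood mononuclear cells (0.63×10^5/ml) in RPMI 1640 with 5% FCS were cultured in triplicate with test compound and PHA or PPD for 3 or 7 days. Proliferation measured by ^3H-thymidine incorporation over the final 24 h; triplicate median recorded.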

Plasmodium falciparum = Plasmodium falciparum Assay; format: cell-based; conditions: Plasmodium falciparum; 3-H-hypoxanthine incorporation, 48 hours; read-out: Plasmodium IC50 ± SD
Outline: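 Parasitized erythrocytes (~1% parasitemia, 5×10^8/ml) cultured 48 h in RPMI with test compound, with 3H-hypoxanthine added for the last 24 h. Growth inhibition read as 3H-hypoxanthine incorporation into parasite DNA by liquid scintillation; uninfected and untreated infected cultures run in parallel.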

| Compound | Minimum Cytotoxic Concentration (Vero cell cultures) | Minimum inhibitory concentration, Coxsackie virus B4 (Coxsackie virus B4) | Minimum inhibitory concentration, Parainfluenza-3 Virus (Parainfluenza-3 Virus) | Minimum inhibitory concentration, Reovirus-1 (Reovirus-1) | Minimum inhibitory concentration, Simliki forest virus (Simliki forest virus) | Minimum inhibitory concentration, Sindbis virus (Sindbis virus) | Antiviral activity IC50, AD-169 strain, Assay 1 [1] | Antiviral activity IC50, Davis strain, Assay 1 [2] | Cytotoxicity CC50 [3] | activity of NADH-fumarate reductase [4] | toxic effects [5] | IC50 (Leishmania promastigotes) [µM] | IC50 (human lymphocytes) [µM] | IC50 (Plasmodium falciparum) [µM] |
| --- | --- | --- | --- | --- | --- | --- | --- | --- | --- | --- | --- | --- | --- | --- |
| C=CCOc1ccc(C(=O)/C=C/c2cccc(OC)c2OC)cc1 [2,3m4′ac] | <1/100 | <1/100 | <1/100 | <1/100 | <1/100 | <1/100 | <1/30 | <1/30 | <1/30 | – | – | – | – | – |
| C=CCOc1ccc(C(=O)/C=C/c2cc(OC)c(OC)cc2OC)cc1 [2,4,5m4′ac] | <1/100 | 1/600 | 1/2000 | <1/100 | 1/600 | 1/2000 | 1/60 | <1/30 | <1/30 | – | – | – | – | – |
| C=CCOc1ccc(C(=O)/C=C/c2c(OC)cc(OC)cc2OC)cc1 [2,4,6m4′ac] | <1/100 | 1/600 | 1/2000 | <1/100 | 1/600 | 1/2000 | 1/200 | 1/120 | <1/30 | – | – | – | – | – |
| COc1ccc(/C=C/C(=O)c2ccccc2O)c(OC)c1 [2,4m2′hc] | <1/100 | <1/100 | <1/100 | <1/100 | <1/100 | <1/100 | <1/60 | <1/60 | <1/60 | – | – | – | – | – |
| COc1ccc(/C=C/C(=O)c2ccccc2)c(OC)c1 [2,4mc] | <1/100 | <1/100 | <1/100 | <1/100 | <1/100 | <1/100 | <1/30 | 1/35 | <1/30 | – | – | – | – | – |
| C=CCOc1ccc(C(=O)/C=C/c2cc(OC)ccc2OC)cc1 [2,5m4′ac] | <1/100 | <1/100 | <1/100 | <1/100 | <1/100 | <1/100 | 1/35 | 1/55 | <1/30 | – | – | – | – | – |
| COc1cccc(OC)c1/C=C/C(=O)c1ccc(O)cc1 [2,6m4′hc] | <1/100 | 1/600 | 1/600 | <1/100 | 1/600 | 1/2000 | 1/150 | 1/300 | 1/80 | – | – | – | – | – |
| O=C(CC(=O)C(F)(F)F)c1cccs1 [2-thenoyltrifluoroacetone, reference compound] | – | – | – | – | – | – | – | – | – | almost completely inhibited | – | – | – | – |
| C=CCOc1ccc(C(=O)/C=C/c2cc(OC)c(OC)c(OC)c2)cc1 [3,4,5m4′ac] | <1/100 | 1/2000 | 1/2000 | <1/100 | 1/600 | 1/2000 | 1/150 | 1/85 | <1/60 | – | – | – | – | – |
| COc1ccc(/C=C/C(=O)c2ccc(O)cc2)cc1OC [3,4m4′hc] | <1/100 | <1/100 | <1/100 | <1/100 | <1/100 | <1/100 | 1/45 | 1/55 | <1/30 | – | – | – | – | – |
| O=C(/C=C/c1ccccc1)c1ccc(O)cc1 [4′-OH, 4′-hydroxychalcone] | – | – | – | – | – | – | – | – | – | – | inconclusive effect | 16 ± 1 | 28 ± 1 | 21 |
| C=CCOc1ccc(C(=O)/C=C/c2ccc(OC)cc2OC)cc1 [24m4′ac, 2,4-dimethoxy-4′allyloxychalcone] | – | – | – | – | – | – | – | – | – | – | No toxic effects | – | – | – |
| COc1ccc(/C=C/C(=O)c2ccc(O)cc2)c(OC)c1 [24m4′hc, 2,4-dimethoxy-4′hydroxychalcone] | – | – | – | – | – | – | – | – | – | – | No toxic effects | 48 ± 3 | 71 ± 5 | 11 |
